Laboratory results taken from patent US4038278A, “4-Aminopyrimidium derivatives and preparation thereof” (Eisai Co., Ltd., priority 1974, dated 1977).
Where two headings read alike, the source gives them in different places.

Columns and labels:
stomach mucosa = test: Degree of gastric trouble (visible observation of stomach mucosa); format: in vivo, rat (Wistar strain); conditions: for Degree of gastric trouble: 100 mg/kg p.o., sum of scores (0-3) of 4 rats; for degree of gastric trouble in words: 100 mg/Kg p.o.
Text: 2. Degree of gastric trouble
The rats used in above test of anti-edematic effects were slaughtered, and their stomaches were visibly observed in accordance with the under-mentioned bases. Measurement values were decided by summing up the respective data of 4 tests of each group.
Visible observation of the stomach mucosa
No abnormality is recognized
Slight edema, congestion or slight erosion
Scattered or limitted erosion and spotted
Heavy erosion, linear bleeding or enlarged

[1] = system: acetic acid Writhing syndrome; test: Anti-acetic acid Writhing test, oral, in mice; format: in vivo, mouse (dd strain); conditions: for ED50: Mus musculus, po, read-out: ED50 (anti-acetic acid Writhing)
Description: Comparative tests for anti-acetic acid Writhing activity in mice were made to the Compound A of the present invention and 4-amino-pyrimidine-N^1 -phenacylbromide (hereinafter referred to as Compound C), using Aspirin as a control compound. The test compounds were respectively suspended in an of aqueous solution of containing five percent of gum Arabic. Eight male mice of dd strain weighing approximately 20 - 23g were used as the test animals. The mice were made to fast for about 19 hours.
After 50 minutes or 170 minutes of administration of the test compounds, 0.1 ml of 0.7% acetic acid solution per 10 g. of the body weight of the test animal was injected intraperitoneally. Regarding the expansion of the hind paw of the mice induced during 15 minutes after the injection, a number of Writhing syndromes were encountered and recorded. Effects of the respective test compounds against the usual behavior of the mice were also observed. In the above test, 5% gum arabic solution per se was administered to the control animal.
Various doses of the respective compounds were orally administered to eight mice. After 1 or 3 hours of the administration, a anti-acetic acid Writhing test was carried out.

[2] = system: Carrageenin edema of the hind paw of the rat; test: Anti-edematic effect, Carrageenin paw edema method, oral, in rats; format: in vivo, rat (Wistar strain); conditions: for Anti-edematic ratio (%) / Comparison with Control Compound (anti-edematic ratio): 100 mg/kg p.o.; for Anti-edematic ratio (%): rats, 3 hours after Carrageenin; for Comparison with Control Compound (anti-edematic ratio): Control compound (Aspirin) = 100; for anti-edematic / anti-inflammatory effect in words: 100 mg/Kg p.o.
Description: Test animal: For the respective compounds, four male rats of the Wistar strain weighing approximately 150g were used. The test animals were made to fast for approximately 16 hours.
The anti-edematic test is carried out by determining the increase of edema due to the injection of […], in accordance with the paw edema method. [see Winter. C. A. et al; Proc. Soc. exp.
The test compounds were respectively suspended in five percent of aqueous solution of gum Arabic, and the suspensions were orally administered to the rats one hour before the injection of the Carrageenin. Activities were determined by measuring the volume of the hind paw of the rat three hours after the administration of the Carrageenin.

pH of the test compound = format: physicochemical; conditions: footnote of Table 5
gastric secretion = test: Effect on gastric secretion in 4hr. pylorus-ligated rats (intraduodenal); format: in vivo, rat (Wistar strain)
Description: (§1) Using rats of Wistar strain as test animals weighing about 150 - 160 g., the anti-ulcer activities were measured in accordance with the conventional manner with respect to the following four (4) items.
ii. Effect on gastric secretion in 4hr. pylorus-ligated rats. (Intraduodenal administration)

Shay Ulcer = test: Effect on Shay Ulcer in rats (17hr. pylorus-ligated rats); format: in vivo, rat (Wistar strain); conditions: for Inhibitory % (ulcer index) / Ulcer Index (mm): 300 (mg/μg [sic]); for Inhibitory % (ulcer index) / Ulcer Index (mm) / Inhibitory % (titrable acidity) / Inhibitory % (volume) / Titrable Acidity to pH 7.0 / Vol(ml) 100g B.W.: 17hr pylorus-ligated; for Ulcer Index (mm): Compound A n=2, individual values (0),(84), Compound C n=6, * P<0.05; for Inhibitory % (titrable acidity) / Inhibitory % (volume) / Titrable Acidity to pH 7.0 / Vol(ml) 100g B.W.: dose not given in Table 7; for Vol(ml) 100g B.W.: Compound A n=2, individual values (1.11),(3.29); for inhibitory effect against the appearance of ulcer in words: Tables 6 and 7
Description: as §1
iii. Effect on Shay Ulcer in rats. (Method by 17hr. pylorusligated rats)

Stress Ulcer (Immersion) = Stress Ulcer (Immersion) at 23-25° C. for 20 hrs; format: in vivo, rat (Wistar strain); conditions: for effect on stress ulcer in words: 300 mg/Kg (p.o.)
Description: as §1
i. Stress Ulcer (Immersion) at 23° - 25° C. for 20 hrs.

[3] = system: gastric secretion stimulated by carbachol; test: Effect on gastric secretion stimulated by carbachol in acute gastric fistula rats; format: in vivo, rat (Wistar strain); conditions: FIG. 1
Description: as §1
iv. Effect on gastric secretion in acute gastric fistula rats.
Comparative tests were carried out to measure the effects on gastric secretion stimulated by carbachol and the effects of Compounds A and C on eight rats of Wistar strain. The results are graphically shown in the accompanying FIG. 1.

[4] = 3hr, 160 mg/Kg p.o., ** P<0.01 for Compound C
[5] = 150 (mg/μg [sic]) intraduodenal
[6] = 300 (mg/μg [sic]) intraduodenal
[7] = 150 mg/Kg p.o., * P<0.05 for Compound C
[8] = 300 mg/Kg p.o., ** P<0.01 for Compound A, * P<0.05 for Compound C

CC(=O)Oc1ccccc1C(=O)O [Aspirin, reference compound]
Degree of gastric trouble (stomach mucosa): 12
ED50 ([1]; 1 h): 410 mg/kg
ED50 ([1]; 3 h): 253 mg/kg
Anti-edematic ratio (%) [2]: 35.8%
Comparison with Control Compound (anti-edematic ratio) [2]: 100

COc1ccc(C(=O)C[n+]2ccc(N)nc2)cc1 [Compound A, 4-aminopyrimidine N^1-(p-methoxyphenacyl)bromide]
degree of gastric trouble in words (stomach mucosa): extremely less than that of the Control compound
Degree of gastric trouble (stomach mucosa): 2
No. of Writhing Syndrome (m±S.E.) ([1]; 1hr, 20 mg/Kg p.o.): 41.4 ± 5.6
% of Protection ([1]; 1hr, 40 mg/Kg p.o.): 18%
No. of Writhing Syndrome (m±S.E.) ([1]; 1hr, 40 mg/Kg p.o.): 33.1 ± 3.7
% of Protection ([1]; 1hr, 80 mg/Kg p.o.): -15%
No. of Writhing Syndrome (m±S.E.) ([1]; 1hr, 80 mg/Kg p.o.): 46.3 ± 3.6
No. of Writhing Syndrome (m±S.E.) ([1]; 1hr, 160 mg/Kg p.o.): 29.4 ± 5.1
% of Protection ([1]; 1hr, 160 mg/Kg p.o., * P<0.05): 27%
No. of Writhing Syndrome (m±S.E.) ([1]; 1hr, 320 mg/Kg p.o.): 17.1 ± 4.6
% of Protection ([1]; 1hr, 320 mg/Kg p.o., ** P<0.01): 58%
% of Protection ([1]; 3hr, 20 mg/Kg p.o.): -13%
No. of Writhing Syndrome (m±S.E.) ([1]; 3hr, 20 mg/Kg p.o.): 34.6 ± 5.4
% of Protection ([1]; 3hr, 40 mg/Kg p.o.): 43%
No. of Writhing Syndrome (m±S.E.) ([1]; 3hr, 40 mg/Kg p.o.): 17.6 ± 4.8
% of Protection ([1]; 3hr, 80 mg/Kg p.o.): 25%
No. of Writhing Syndrome (m±S.E.) ([1]; 3hr, 80 mg/Kg p.o.): 23.1 ± 6.6
No. of Writhing Syndrome (m±S.E.) ([1]; 3hr, 160 mg/Kg p.o.): 21.8 ± 4.0
% of Protection [1, 4]: 29%
No. of Writhing Syndrome (m±S.E.) ([1]; 3hr, 320 mg/Kg p.o.): 3.8 ± 2.7
% of Protection ([1]; 3hr, 320 mg/Kg p.o., ** P<0.01): 88%
anti-edematic / anti-inflammatory effect in words [2]: equal to, or more than that of the Control compound
Anti-edematic ratio (%) [2]: 50.0%
Comparison with Control Compound (anti-edematic ratio) [2]: 140
pH of the test compound (pH of the test compound): 6.3
Inhibitory % (titrable acidity) (gastric secretion; [5]): 92.4%
Inhibitory % (volume) (gastric secretion; [5]): 73.3%
Titrable acidity to PH 7.0 (gastric secretion; [5]): 14.4 ± 4.2 μEq/100g B.W.
Vol/100 g B.W.(ml) (gastric secretion; [5]): 0.5 ± 0.06 ml/100 g B.W.
Inhibitory % (titrable acidity) (gastric secretion; [6]): 96.4%
Inhibitory % (volume) (gastric secretion; [6]): 64.4%
Titrable acidity to PH 7.0 (gastric secretion; [6]): 6.8 ± 3.4 μEq/100g B.W.
Vol/100 g B.W.(ml) (gastric secretion; [6]): 0.72 ± 0.24 ml/100 g B.W.
Inhibitory % (ulcer index) (Shay Ulcer): 23.4%
Ulcer Index (mm) (Shay Ulcer): 42 mm
Inhibitory % (titrable acidity) (Shay Ulcer): 45.9%
Inhibitory % (volume) (Shay Ulcer): 54.1%
Titrable Acidity to pH 7.0 (Shay Ulcer): 188.2 ± 72.0 μ Eq/100g B.W.
Vol(ml) 100g B.W. (Shay Ulcer): 2.20 ml/100g B.W.
inhibitory effect against the appearance of ulcer in words (Shay Ulcer): outstanding inhibitory effects
Inhibitory % (ulcer index) (Stress Ulcer (Immersion); 150 mg/Kg p.o.): 28.1%
Ulcer Index (mm) (Stress Ulcer (Immersion); [7]): 37.1 ± 5.9 mm
effect on stress ulcer in words (Stress Ulcer (Immersion)): effective
Inhibitory % (ulcer index) (Stress Ulcer (Immersion); 300 mg/Kg p.o.): 70.3%
Ulcer Index (mm) (Stress Ulcer (Immersion); [8]): 15.3 ± 6.1 mm

Cc1cccc(C(=O)C[n+]2ccc(N)nc2)c1 [Compound B, 4-aminopyrimidine N^1-(m-methylphenacyl)bromide]
degree of gastric trouble in words (stomach mucosa): extremely less than that of the Control compound
Degree of gastric trouble (stomach mucosa): 6
anti-edematic / anti-inflammatory effect in words [2]: equal to, or more than that of the Control compound
Anti-edematic ratio (%) [2]: 35.3%
Comparison with Control Compound (anti-edematic ratio) [2]: 99

Nc1cc[n+](CC(=O)c2ccccc2)cn1 [Compound C, 4-amino-pyrimidine-N^1-phenacylbromide]
% of Protection ([1]; 1hr, 20 mg/Kg p.o.): 8%
No. of Writhing Syndrome (m±S.E.) ([1]; 1hr, 20 mg/Kg p.o.): 36.9 ± 3.6
% of Protection ([1]; 1hr, 40 mg/Kg p.o.): 13%
No. of Writhing Syndrome (m±S.E.) ([1]; 1hr, 40 mg/Kg p.o.): 34.9 ± 7.3
% of Protection ([1]; 1hr, 80 mg/Kg p.o.): -12%
No. of Writhing Syndrome (m±S.E.) ([1]; 1hr, 80 mg/Kg p.o.): 45.3 ± 1.7
No. of Writhing Syndrome (m±S.E.) ([1]; 1hr, 160 mg/Kg p.o.): 29.9 ± 5.1
% of Protection ([1]; 1hr, 160 mg/Kg p.o., * P<0.05): 26%
No. of Writhing Syndrome (m±S.E.) ([1]; 1hr, 320 mg/Kg p.o.): 15.9 ± 5.5
% of Protection ([1]; 1hr, 320 mg/Kg p.o., ** P<0.01): 61%
% of Protection ([1]; 3hr, 20 mg/Kg p.o.): -35%
No. of Writhing Syndrome (m±S.E.) ([1]; 3hr, 20 mg/Kg p.o.): 41.4 ± 5.0
% of Protection ([1]; 3hr, 40 mg/Kg p.o.): 27%
No. of Writhing Syndrome (m±S.E.) ([1]; 3hr, 40 mg/Kg p.o.): 22.3 ± 5.3
% of Protection ([1]; 3hr, 80 mg/Kg p.o.): -19%
No. of Writhing Syndrome (m±S.E.) ([1]; 3hr, 80 mg/Kg p.o.): 36.4 ± 3.8
No. of Writhing Syndrome (m±S.E.) ([1]; 3hr, 160 mg/Kg p.o.): 11.0 ± 3.3
% of Protection [1, 4]: 64%
No. of Writhing Syndrome (m±S.E.) ([1]; 3hr, 320 mg/Kg p.o.): 12.9 ± 4.6
% of Protection ([1]; 3hr, 320 mg/Kg p.o., ** P<0.01): 58%
inhibitory effect to Maximum Response [3]: about 35%
pH of the test compound (pH of the test compound): 5.8
Inhibitory % (titrable acidity) (gastric secretion; [5]): 69.7%
Inhibitory % (volume) (gastric secretion; [5]): 53.5%
Titrable acidity to PH 7.0 (gastric secretion; [5]): 57.0 ± 22.4 μEq/100g B.W.
Vol/100 g B.W.(ml) (gastric secretion; [5]): 0.94 ± 0.20 ml/100 g B.W.
Inhibitory % (titrable acidity) (gastric secretion; [6]): 88.2%
Inhibitory % (volume) (gastric secretion; [6]): 69.3%
Titrable acidity to PH 7.0 (gastric secretion; [6]): 22.2 ± 7.6 μEq/100g B.W.
Vol/100 g B.W.(ml) (gastric secretion; [6]): 0.62 ± 0.08 ml/100 g B.W.
Inhibitory % (ulcer index) (Shay Ulcer): 64.8%
Ulcer Index (mm) (Shay Ulcer): 19 ± 7 mm
Inhibitory % (titrable acidity) (Shay Ulcer): -19.3%
Inhibitory % (volume) (Shay Ulcer): 34.5%
Titrable Acidity to pH 7.0 (Shay Ulcer): 414.8 ± 83.0 μ Eq/100g B.W.
Vol(ml) 100g B.W. (Shay Ulcer): 3.14 ± 0.43 ml/100g B.W.
inhibitory effect against the appearance of ulcer in words (Shay Ulcer): outstanding inhibitory effects
Inhibitory % (ulcer index) (Stress Ulcer (Immersion); 150 mg/Kg p.o.): 23.4%
Ulcer Index (mm) (Stress Ulcer (Immersion); [7]): 53.1 ± 5.8 mm
effect on stress ulcer in words (Stress Ulcer (Immersion)): effective
Inhibitory % (ulcer index) (Stress Ulcer (Immersion); 300 mg/Kg p.o.): 66.2%
Ulcer Index (mm) (Stress Ulcer (Immersion); [8]): 23 ± 6.3 mm

CC(C)[N+](C)(CCOC(=O)C1c2ccccc2Oc2ccccc21)C(C)C [Propantheline, reference compound]
Inhibitory % (ulcer index) (Stress Ulcer (Immersion); 15 mg/Kg p.o.): 37.0%
Ulcer Index (mm) (Stress Ulcer (Immersion); 15 mg/Kg p.o.): 43.8 ± 12.9 mm
Inhibitory % (ulcer index) (Stress Ulcer (Immersion); 30 mg/Kg p.o.): 61.4%
Ulcer Index (mm) (Stress Ulcer (Immersion); 30 mg/Kg p.o., ** P<0.01): 26.8 ± 7.4 mm
